Measurements: patent US20240116985A1, “STAPLED PEPTIDES AND METHODS THEREOF” (priority 2020, published 2024)
In brackets after ≈: the same amount, converted by molar mass. Read-outs that look alike come from different tables or passages of the source.

Columns and labels:
[1] = target: T1, beta-catenin/TCF4 engagement (Homo sapiens, UniProt P35222); assay: Nano-BRET target engagement assay (B-cat-Halo & TCF4-Luc in HEK293 cells); format: cell-based
T1 construct: expressed in transfected cells; host or cells: HEK293
T1 sequence (P35222 1-781): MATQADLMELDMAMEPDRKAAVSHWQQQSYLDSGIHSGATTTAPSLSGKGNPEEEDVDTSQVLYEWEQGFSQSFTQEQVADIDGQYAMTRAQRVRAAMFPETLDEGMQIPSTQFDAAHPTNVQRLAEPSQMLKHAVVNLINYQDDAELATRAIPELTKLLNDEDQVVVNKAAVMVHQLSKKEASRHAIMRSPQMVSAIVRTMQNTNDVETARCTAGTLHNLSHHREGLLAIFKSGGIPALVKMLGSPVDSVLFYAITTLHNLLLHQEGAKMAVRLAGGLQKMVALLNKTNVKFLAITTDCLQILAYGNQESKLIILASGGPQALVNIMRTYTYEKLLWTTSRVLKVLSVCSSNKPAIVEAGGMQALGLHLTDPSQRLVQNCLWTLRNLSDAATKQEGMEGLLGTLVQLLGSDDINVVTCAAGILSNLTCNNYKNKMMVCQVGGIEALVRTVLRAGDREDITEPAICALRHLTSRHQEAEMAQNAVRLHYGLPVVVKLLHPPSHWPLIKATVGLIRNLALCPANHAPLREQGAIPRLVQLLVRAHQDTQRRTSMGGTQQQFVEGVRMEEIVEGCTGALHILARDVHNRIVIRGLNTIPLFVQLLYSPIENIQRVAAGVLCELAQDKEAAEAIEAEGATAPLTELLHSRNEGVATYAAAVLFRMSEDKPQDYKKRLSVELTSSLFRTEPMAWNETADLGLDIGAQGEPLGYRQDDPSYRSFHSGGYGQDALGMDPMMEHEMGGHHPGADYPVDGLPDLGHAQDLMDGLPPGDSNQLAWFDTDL

[2] = target: T2, full-length beta-Catenin (Uniprot ID P35222) (Homo sapiens, UniProt P35222); assay: Fluorescence polarization IC50 (beta-catenin / 5FAM-TCF4 10-53 competition); format: binding
T2 construct: 10 nM full-length beta-Catenin (Uniprot ID P35222)
T2 sequence (P35222 1-781): T1 sequence (P35222 1-781)

CHI Log D procedure = format: physicochemical; details: for CHI Log D: pH 7.4; for chromatographic logD: pH 7.4, CHI Log D
Solubility in PBS = format: physicochemical
Summary of the method: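 Read-out is the HPLC peak area of the supernatant from ultracentrifuged PBS solution, scaled against a 50 μM peptide DMSO injection; value reported as [(PBS area)/(DMSO area)]*50 uM.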

[3] = absolute IC50, read-out: NanoBRET Abs IC50
[4] = fluorescence polarization, read-out: beta-Catenin FP IC50

| SMILES | IC50 [1, 3] [µM] | IC50 ([1]; read-out: NanoBRET IC50) [µM] | IC50 [2, 4] [µM] | IC50 ([2]; read-out: FP EC50) [µM] | CHI Log D (CHI Log D procedure) | Solubility (Solubility in PBS) [µM] | IC50 ([2]; read-out: beta-Catenin FP IC50) [µM] | chromatographic logD (CHI Log D procedure) | Solubility (Solubility in PBS; Solubility (uM)) [µM] | inhibition at 10 µM ([1]; HEK293, @ 10 uM, read-out: NanoBRET % inh @ 10 uM) [%] | IC50 ([1]; read-out: NanoBRET Abs IC50) [µM] |
| --- | --- | --- | --- | --- | --- | --- | --- | --- | --- | --- | --- |
| CC(=O)N1CCC[C@]12CC=CCCCC1(CCCC=CCCCCCC[C@@](C)(C(=O)N[C@@H](Cc3ccccc3)C(=O)N[C@@H](Cc3csc4ccccc34)C(=O)N[C@@H](CCC(N)=O)C(N)=O)NC(=O)[C@H](CC(N)=O)NC(=O)[C@H](Cc3ccccc3)NC(=O)[C@H](C)NC(=O)[C@H](C)NC(=O)[C@H](CCC(=O)O)NC(=O)[C@H](CC(=O)O)NC1=O)NC(=O)[C@H](CC1CCCCC1)NC(=O)[C@H](CC(=O)O)NC2=O (stereo partly drawn) [I-620, Ac-PL3-Asp-Cha-B5-Asp-Glu-Ala-Ala-Phe-Asn-S8-Phe-BztA-Gln-NH2] | 12 | 5.8 | 0.035 | 0.035 | 2.688 | 48 (≈ 91.6 µg/mL) |  |  |  |  |  |
| CC(=O)N1CCC[C@]12CC=CCCCC1(CCCC=CCCCOC(=O)N3CC[C@@](C(=O)N[C@@H](Cc4ccsc4)C(=O)N[C@@H](Cc4csc5ccccc45)C(=O)N[C@@H](Cc4c[nH]cn4)C(N)=O)(C3)NC(=O)[C@H](CC(N)=O)NC(=O)[C@H](Cc3ccccc3)NC(=O)[C@H](C)NC(=O)[C@H](C)NC(=O)[C@H](CC(N)=O)NC(=O)[C@H](CC(=O)O)NC1=O)NC(=O)[C@H](CC(C)(C)C)NC(=O)[C@H](CC(=O)O)NC2=O (stereo partly drawn) [I-837, Ac-PL3-Asp-Npg-B5-Asp-Asn-Ala-Ala-Phe-Asn-PyrS2-3Thi-BztA-His-NH2] | 23.8 |  |  |  |  |  | 0.005 | 2.3 | 14 (≈ 27 µg/mL) |  |  |
| CC(=O)N1CCC[C@]12CC=CCCCC1(CCCC=CCCCOC(=O)N3CC[C@@](C(=O)N[C@@H](Cc4ccsc4)C(=O)N[C@@H](Cc4cccc5ccccc45)C(=O)N[C@@H](Cc4c[nH]cn4)C(N)=O)(C3)NC(=O)[C@H](CC(N)=O)NC(=O)[C@H](Cc3ccccc3)NC(=O)[C@H](C)NC(=O)[C@H](C)NC(=O)[C@H](CC(=O)O)NC(=O)[C@H](CC(=O)O)NC1=O)NC(=O)[C@H](CC(C)(C)C)NC(=O)[C@H](CC(=O)O)NC2=O (stereo partly drawn) [I-789, Ac-PL3-Asp-Npg-B5-Asp-Asp-Ala-Ala-Phe-Asn-PyrS2-3Thi-1NapA-His-NH2] |  |  |  |  |  | 50 (≈ 96.1 µg/mL) | 0.019 | 2.08 |  | 9.7 | > 20 |
| CC(=O)N1CCC[C@]12CC=CCCCC1(CCCC=CCCCOC(=O)N3CC[C@@](C(=O)N[C@@H](Cc4ccccc4)C(=O)N[C@@H](Cc4csc5ccccc45)C(=O)N[C@@H](CCC(N)=O)C(N)=O)(C3)NC(=O)[C@H](CC(N)=O)NC(=O)[C@H](Cc3ccccc3)NC(=O)[C@H](C)NC(=O)[C@H](C)NC(=O)[C@H](CCC(=O)O)NC(=O)[C@H](CC(=O)O)NC1=O)NC(=O)[C@H](CC(C)(C)C)NC(=O)[C@H](CC(=O)O)NC2=O (stereo partly drawn) [I-684, Ac-PL3-Asp-Npg-B5-Asp-Glu-Ala-Ala-Phe-Asn-PyrS2-Phe-BztA-Gln-NH2] | 14.3 |  | 0.015 | 0.015 | 2.037 | 44 (≈ 84.8 µg/mL) |  |  |  |  |  |
| CC(=O)N1CCC[C@]12CC=CCCCC1(CCCC=CCCCOC(=O)N3CC[C@@](C(=O)N[C@@H](Cc4ccccc4)C(=O)N[C@@H](Cc4csc5ccccc45)C(=O)N[C@@H](CCC(N)=O)C(N)=O)(C3)NC(=O)[C@H](CC(C)C)NC(=O)[C@H](Cc3cccc(C(F)(F)F)c3)NC(=O)[C@H](C)NC(=O)[C@H](C)NC(=O)[C@H](CC(=O)O)NC(=O)[C@H](CC(=O)O)NC1=O)NC(=O)[C@H](CC(C)(C)C)NC(=O)[C@H](CC(=O)O)NC2=O (stereo partly drawn) [I-1128, Ac-PL3-Asp-Npg-B5-Asp-Asp-Ala-Ala-3F3MeF-Leu-PyrS2-Phe-BztA-Gln-NH2] |  |  |  |  |  |  | 0.02 | 2.3 | 23 (≈ 45.5 µg/mL) |  | 8.1 |
| CC(=O)N1CCC[C@]12CC=CCCCC1(CCCC=CCCCOC(=O)N3CC[C@@](C(=O)N[C@@H](Cc4ccsc4)C(=O)N[C@@H](Cc4csc5ccccc45)C(=O)N[C@@H](CCC(N)=O)C(=O)N[C@@H](CCCCN)C(N)=O)(C3)NC(=O)[C@H](CC(N)=O)NC(=O)[C@H](Cc3ccccc3)NC(=O)[C@H](C)NC(=O)[C@H](C)NC(=O)[C@H](CC(=O)O)NC(=O)[C@H](CC(=O)O)NC1=O)NC(=O)[C@H](CC(C)(C)C)NC(=O)[C@H](CC(=O)O)NC2=O (stereo partly drawn) [I-939, Ac-PL3-Asp-Npg-B5-Asp-Asp-Ala-Ala-Phe-Asn-PyrS2-3Thi-BztA-Gln-Lys-NH2] |  | 18 |  |  |  |  | 0.008 | 1.79 | 15 (≈ 30.7 µg/mL) |  | 25.1 |
